Consider one molecule from US20170216252A1, “ANTI-BACTERIAL PYRUVATE KINASE MODULATOR COMPOUNDS, COMPOSITIONS, USES AND METHODS” (SIMON FRASER UNIVERSITY, priority 2014, published 2017).

For one experiment, the system named is E. coli (DAS 1-IMP). Briefly: microbe, parasite or virus in culture. Type of experiment: cell-based, Escherichia coli. The following applies: Escherichia coli, read-out: MIC (μg/mL) C, E. coli (DAS 1-IMP). Here is the method:
(§1) The antimicrobial activities of PK inhibitor candidates were determined using the 96-well microtiter standard 2-fold serial broth microdilution method as described by CLSI (formerly NCCLS) with the various gram-positive and gram-negative bacteria species mentioned above. Bacteria from a single colony were grown, overnight in either BHI Broth (VRE), mueller hinton broth (S. aureus 29213; MRSA USA400) or L-broth (E. coli, P. aeruginosa, S. typhimuriu, K. Pneumonia and A. baumannii). […] Culture plates were incubated for 18-24 h at 37° C., and optical density at 600 nm (OD600) was measured using a Benchmark Plus™ microplate spectrophotometer (Bio-Rad™). The absorbance control values for the series containing CAMHB and inhibitor were subtracted as background from the corresponding infected wells. The MIC was defined as the lowest concentration of test compound leading to complete inhibition of cell growth in relationship to compound-free control wells as determined by optical density. […] All assays were run in triplicate (Tables 1-6) or duplicate. Experiments were replicated at least twice to verify reproducibility using the above conditions.
(§2) The antimicrobial activity of selected compounds against the gram negative bacteria Klebsiella pneumoniae, Acinetobacter baumannii, E. coli, Pseudomonas aeruginosa and Salmonella typhimurium, as well as additional gram positive bacteria, including drug-resistant strains, was tested according to the procedures provided under “General Methodologies” above.

For the next experiment, the system named is VRE#2 (2010A). Description: Broth microdilution MIC. Type of experiment: cell-based, vancomycin-resistant Enterococcus. The following applies: Enterococcus; VRE#2 (2010A); read-out: MIC (μg/mL) F. Here is the method:
as §1, §2
(Broth dilution looks for growth in wells or tubes with falling amounts of substance.)

The subject of the next experiment is S. aureus ATCC 29123. Briefly: Neutropenic mouse Staphylococcus aureus thigh infection model. Type of experiment: in vivo. The following applies: for median CFU/thigh: 24 h endpoint. How it is done: The antimicrobial activity of compound 178 against S. aureus ATCC 29123 was tested in vivo using the neutropenic mouse Staphylococcus aureus thigh infection model. […] Animals were individually monitored for adverse reactions for 30 min post-infection. […] Vancomycin was administered as a solution in PBS. The test compounds were administered as outlined in Table 12 at 2 and 8 hours post-infection and animals were individually monitored for adverse reactions for 30 min after each injection. All animals were then monitored hourly from 20 hours post infection to the endpoint (t=24 hr post infection). At the indicated timepoint, animals were sacrificed and the injected thigh collected. Quantitative enumeration of bacterial load was determined by plating serial dilutions from homogenized thigh muscles. Homogenized muscle was in a total of 2 mL volume, from which a 1 in 10 dilution was prepared (100 μL into 900 μL saline). From this a series of dilutions were prepared and plated on Mueller Hinton agar plates. […] At the end of this time colony counts were determined and the final CFU per mL calculated.

Another experiment deals with S. pyogenes (ATCC700294). Description: Broth microdilution MIC. The following applies: Streptococcus pyogenes. Type of experiment: cell-based. How it is done:
as §1, §2

In the next experiment the test system is K. pneumoniae (C238). Briefly: Broth microdilution MIC. It counts as cell-based. The following applies: Klebsiella pneumoniae; K. pneumoniae (C238); read-out: MIC (μg/mL) A. Here is the method: as §1, §2
Experiment [1] relates to A. baumannii (ATCC 19606). Description: Broth microdilution MIC. It counts as cell-based. The settings on record: Acinetobacter baumannii, ATCC19606; A. baumannii (ATCC 19606); read-out: MIC (μg/mL) B. How it is done:
as §1, §2

The subject of the next experiment is MRSA MW2 (USA400). Description: Broth microdilution MIC. It counts as cell-based. The settings on record: Staphylococcus aureus; MRSA MW2 (USA400); read-out: MIC (μg/mL) G. Here is the method:
as §1, §2

The test system of a further experiment is P. aeruginosa (PA01). Description: Broth microdilution MIC. Type of experiment: cell-based. The following applies: Pseudomonas aeruginosa. Here is the method:
as §1, §2

The next experiment deals with S. typhimurium (SL 1344). Briefly: Broth microdilution MIC. It counts as cell-based. The settings on record: Salmonella enterica. Here is the method:
as §1, §2

Converted amounts (≈) assume the structure as drawn. Some results are limits rather than exact numbers.

For the molecule `O=C(c1c(-c2cc3cc(Cl)ccc3[nH]2)[nH]c2cc(Br)ccc12)C(F)(F)F` [Compound 178, 1-(6-bromo-5′-chloro-1H,1′H-[2,2′-biindol]-3-yl)-2,2,2-trifluoroethan-1-one], the MIC with E. coli (DAS 1-IMP) was over 64 µg/mL; in the experiment on VRE#2 (2010A), 1 µg/mL (≈ 2.26 µM); in the experiment with S. pyogenes (ATCC700294), 1 µg/mL (≈ 2.26 µM); in the experiment with K. pneumoniae (C238) it was 1 µg/mL (≈ 2.26 µM); in experiment [1] it was over 64 µg/mL; with MRSA MW2 (USA400), 0.5 µg/mL (≈ 1.13 µM). Also, the MIC in the experiment on P. aeruginosa (PA01) and in the experiment with S. typhimurium (SL 1344) was over 64 µg/mL throughout. Moreover, the “log reduction in median counts for CFU/thigh” value in the experiment with S. aureus ATCC 29123 (all treated groups vs untreated control) was at least 1 log. Also, the “median CFU/thigh” value in the experiment on S. aureus ATCC 29123 (group 3, 3 mg/kg IV at 2 and 8 h) was 8.27×10^6 CFU/thigh; with S. aureus ATCC 29123 (group 4, 10 mg/kg IV at 2 and 8 h), 1.38×10^3 CFU/thigh; in the experiment with S. aureus ATCC 29123 (group 5, PO 10 mg/kg at 2 and 8 h), 1.2×10^2 CFU/thigh. The “log reduction in median counts” value with S. aureus ATCC 29123 (group 5, PO 10 mg/kg vs untreated control) was 6 log. Further, the “CFU/thigh of one mouse dosed only once” value with S. aureus ATCC 29123 (group 5, PO 10 mg/kg, single dose) is 2.2×10^2 CFU/thigh.
